The source of these data is DBAASP.

Molecules are shown by their SMILES. Converted amounts (≈) assume the structure as drawn.

Test systems include Bacillus subtilis; Escherichia coli JW0013; Escherichia coli B; Bacillus subtilis 168; Staphylococcus aureus; Pseudomonas aeruginosa.
Assay in all cases: ≥ marks a high value that may be exact or a test limit, other limits are often not marked, values filed in µg/mL are converted to µM
For assay [1], the system named is Escherichia coli ATCC 25922.
Assay [2] concerns Staphylococcus aureus ATCC 2592.
The subject of assay [3] is Candida albicans ATCC 2002.
Assay [4] relates to Pseudomonas aeruginosa ATCC 9027.

The term MIC denotes the lowest concentration that inhibits growth of the organism. Take `CC[C@H](C)[C@H](NC(=O)[C@H](CCC(N)=O)NC(=O)[C@H](CCCCN)NC(=O)[C@H](Cc1c[nH]c2ccccc12)NC(=O)[C@H](CC(C)C)NC(=O)[C@H](CCC(N)=O)NC(=O)[C@@H]1CCCN1C(=O)[C@H](CC(C)C)NC(=O)[C@H](CCCCN)NC(=O)[C@H](C)NC(=O)[C@H](CCC(=O)O)NC(=O)[C@H](CCCCN)NC(=O)[C@@H](NC(=O)CNC(=O)[C@@H](NC(=O)[C@@H](NC(=O)[C@@H](NC(=O)[C@@H](N)CO)[C@@H](C)CC)[C@@H](C)CC)[C@@H](C)O)[C@@H](C)O)C(=O)N[C@@H](C)C(=O)N[C@H]1CSSC[C@@H](C(=O)O)NC(=O)[C@H]([C@@H](C)O)NC(=O)[C@H](CC(N)=O)NC(=O)[C@H](Cc2ccc(O)cc2)NC(=O)[C@H](CC(C)C)NC(=O)[C@H](CCCN=C(N)N)NC1=O` [SIITGTKEAKLPQLWKQIACRLYNTC]: the MIC in assay [1] is 20.1 µM (≈ 60 µg/mL); in assay [2], 5.03 µM (≈ 15 µg/mL); in assay [3] it was 10.1 µM (≈ 30 µg/mL); in the assay on Bacillus subtilis, not below 40.3 µM.

Consider `CC[C@H](C)[C@H](NC(=O)[C@@H]1CCCN1C(=O)[C@H](CCCN=C(N)N)NC(=O)[C@@H]1CCCN1C(=O)[C@@H](NC(=O)[C@@H]1CCCN1C(=O)[C@H](CC(C)C)NC(=O)[C@@H](N)Cc1ccccc1)[C@@H](C)CC)C(=O)N[C@@H](CC(C)C)C(=O)N[C@@H](CC(C)C)C(=O)NCC(=O)N[C@@H](CC(C)C)C(=O)N[C@@H](CC(C)C)C(N)=O` [FLPIPRPILLGLL], for which the MIC in assay [1] was 20.5 µM (≈ 30 µg/mL); in [2], 6.84 µM (≈ 9.99 µg/mL); in assay [3], 17.1 µM (≈ 25 µg/mL).

For the compound `CC(C)C[C@H](NC(=O)[C@H](CC(C)C)NC(=O)[C@H](Cc1ccccc1)NC(=O)[C@@H]1CCCN1C(=O)[C@H](CC(C)C)NC(=O)[C@@H](N)Cc1ccccc1)C(=O)N[C@@H](CO)C(=O)N[C@@H](C)C(=O)N[C@@H](CC(C)C)C(=O)N1CCC[C@H]1C(=O)N[C@@H](CCCCN)C(=O)N[C@H](C(=O)N[C@@H](Cc1ccccc1)C(=O)N[C@H]1CSSC[C@@H](C(=O)O)NC(=O)[C@H](CCCCN)NC(=O)[C@H](CCCCN)NC(=O)[C@H](CO)NC(=O)[C@H](Cc2ccccc2)NC(=O)[C@H](Cc2ccccc2)NC1=O)C(C)C` [FLPFLLSALPKVFCFFSKKC], the MIC is 16 µM (≈ 37.3 µg/mL) in assay [1], 32 µM (≈ 74.7 µg/mL) in [4], 8 µM (≈ 18.7 µg/mL) in assay [2] and not below 43 µM in [3].

Regarding `CC[C@H](C)[C@H](NC(=O)[C@H](CCCN=C(N)N)NC(=O)[C@H](CCCN=C(N)N)NC(=O)[C@@H]1CCCN1C(=O)[C@@H]1CCCN1C(=O)[C@H](CCCN=C(N)N)NC(=O)[C@H](Cc1ccccc1)NC(=O)[C@H](CCCN=C(N)N)NC(=O)[C@@H]1CCCN1C(=O)[C@H](CC(C)C)NC(=O)[C@H](Cc1ccc(O)cc1)NC(=O)[C@@H]1CCCN1C(=O)[C@@H]1CCCN1C(=O)[C@H](CCCCN)NC(=O)[C@H](CC(=O)O)NC(=O)[C@@H](N)C(C)C)C(=O)N[C@@H](Cc1ccc(O)cc1)C(=O)N[C@@H](CC(N)=O)C(=O)N[C@@H](CCCN=C(N)N)C(N)=O` [VDKPPYLPRFRPPRRIYNR], the MIC against Escherichia coli JW0013 is 1.97 µM (≈ 4.8 µg/mL).

As to `CC[C@H](C)[C@H](NC(=O)[C@H](CCCN=C(N)N)NC(=O)[C@H](CCCN=C(N)N)NC(=O)[C@@H]1CCCN1C(=O)[C@@H]1CCCN1C(=O)[C@H](CCCN=C(N)N)NC(=O)[C@H](CCCCN)NC(=O)[C@H](CCCN=C(N)N)NC(=O)[C@@H]1CCCN1C(=O)[C@H](CCCN=C(N)N)NC(=O)[C@H](Cc1ccc(O)cc1)NC(=O)[C@@H]1CCCN1C(=O)[C@H](CCCN=C(N)N)NC(=O)[C@H](CCCCN)NC(=O)[C@H](CC(=O)O)NC(=O)[C@@H](N)C(C)C)C(=O)N[C@@H](Cc1ccc(O)cc1)C(=O)N[C@@H](CC(N)=O)C(=O)N[C@@H](CCCN=C(N)N)C(N)=O` [VDKRPYRPRKRPPRRIYNR], the MIC against Escherichia coli JW0013 was determined as 0.951 µM (≈ 2.4 µg/mL). Compared with the last compound, the MIC is about 2.1-fold lower.

Take `CC[C@H](C)[C@H](NC(=O)[C@H](CCCN=C(N)N)NC(=O)[C@H](CCCN=C(N)N)NC(=O)[C@@H]1CCCN1C(=O)[C@@H]1CCCN1C(=O)[C@H](CCCN=C(N)N)NC(=O)[C@@H]1CCCN1C(=O)[C@H](CCCN=C(N)N)NC(=O)[C@@H]1CCCN1C(=O)[C@H](CC(C)C)NC(=O)[C@H](Cc1ccc(O)cc1)NC(=O)[C@@H]1CCCN1C(=O)[C@@H]1CCCN1C(=O)[C@H](CCCCN)NC(=O)[C@H](CC(N)=O)NC(=O)[C@@H](N)C(C)C)C(=O)N[C@@H](Cc1ccc(O)cc1)C(=O)N[C@@H](CC(N)=O)C(=O)N[C@@H](CCCN=C(N)N)C(N)=O` [VNKPPYLPRPRPPRRIYNR]: in the assay on Escherichia coli JW0013, the MIC was 2.01 µM (≈ 4.8 µg/mL).

Take `CC[C@H](C)[C@H](NC(=O)[C@H](CCCN=C(N)N)NC(=O)[C@H](CCCN=C(N)N)NC(=O)[C@@H]1CCCN1C(=O)[C@@H]1CCCN1C(=O)[C@H](CCCN=C(N)N)NC(=O)[C@@H]1CCCN1C(=O)[C@H](CCCN=C(N)N)NC(=O)[C@@H]1CCCN1C(=O)[C@H](CC(C)C)NC(=O)[C@@H](NC(=O)[C@@H]1CCCN1C(=O)[C@@H]1CCCN1C(=O)[C@H](CCCCN)NC(=O)[C@H](CC(=O)O)NC(=O)[C@@H](N)C(C)C)C(C)C)C(=O)N[C@@H](Cc1ccc(O)cc1)C(=O)N[C@@H](CC(N)=O)C(=O)N[C@@H](CCCN=C(N)N)C(N)=O` [VDKPPVLPRPRPPRRIYNR]: the MIC in the assay with Escherichia coli JW0013 was 2.06 µM (≈ 4.8 µg/mL).

Turning to `CC[C@H](C)[C@H](NC(=O)[C@H](CCCN=C(N)N)NC(=O)[C@@H](NC(=O)[C@@H]1CCCN1C(=O)[C@@H](NC(=O)[C@@H](NC(=O)[C@H](CCC(N)=O)NC(=O)[C@@H]1CCCN1C(=O)[C@@H](NC(=O)[C@@H](NC(=O)[C@H](Cc1cnc[nH]1)NC(=O)[C@@H]1CCCN1C(=O)[C@@H]1CCCN1C(=O)[C@@H](NC(=O)CNC(=O)[C@H](Cc1c[nH]c2ccccc12)NC(=O)[C@H](C)NC(=O)[C@H](CCCCN)NC(=O)[C@H](C)N)[C@@H](C)CC)C(C)C)[C@@H](C)CC)[C@@H](C)CC)C(C)C)C(C)C)C(=O)N[C@@H](CCCN=C(N)N)C(=O)N1CCC[C@H]1C(=O)N[C@@H](CC(C)C)C(=O)NCC(=O)NCC(=O)N[C@@H](CC(N)=O)C(=O)N[C@H](C(=O)O)C(C)C` [AKAWGIPPHVIPQIVPVRIRPLGGNV], the MIC in [1] came out at 8.98 µM (≈ 25 µg/mL); in assay [2], 1.15 µM (≈ 3.2 µg/mL); in assay [3], 8.98 µM (≈ 25 µg/mL).

Take `CC[C@H](C)[C@H](NC(=O)[C@H](CCCN=C(N)N)NC(=O)[C@H](CCCN=C(N)N)NC(=O)[C@@H]1CCCN1C(=O)[C@@H]1CCCN1C(=O)[C@H](CCCN=C(N)N)NC(=O)[C@@H]1CCCN1C(=O)[C@H](CCCN=C(N)N)NC(=O)[C@@H]1CCCN1C(=O)[C@H](CC(C)C)NC(=O)[C@H](Cc1ccc(O)cc1)NC(=O)[C@@H]1CCCN1C(=O)[C@@H]1CCCN1C(=O)[C@H](CCCCN)NC(=O)[C@H](CC(=O)O)NC(=O)[C@@H]1CCCN1)C(=O)N[C@@H](Cc1ccc(O)cc1)C(=O)N[C@@H](CC(N)=O)C(=O)N[C@@H](CCCN=C(N)N)C(N)=O` [PDKPPYLPRPRPPRRIYNR]: the minimum inhibitory concentration (MIC) against Escherichia coli JW0013 is 2.01 µM (≈ 4.8 µg/mL).

On to `CC[C@H](C)[C@H](NC(=O)[C@H](CC(C)C)NC(=O)[C@H](CCCCN)NC(=O)CNC(=O)[C@H](CC(C)C)NC(=O)[C@@H](NC(=O)[C@H](CCCCN)NC(=O)[C@H](CO)NC(=O)[C@H](Cc1c[nH]c2ccccc12)NC(=O)[C@H](CCSC)NC(=O)CN)[C@@H](C)CC)C(=O)N[C@@H](CCCN=C(N)N)C(N)=O` [GMWSKILGKLIR], for which the MIC against Escherichia coli B was 3.7 µM (≈ 5.18 µg/mL); with Bacillus subtilis 168 it was 0.9 µM (≈ 1.26 µg/mL); in the assay on Staphylococcus aureus it was 9.2 µM (≈ 12.9 µg/mL); in the assay on Pseudomonas aeruginosa, 26.3 µM (≈ 36.8 µg/mL).

`CSCC[C@H](NC(=O)[C@@H](NC(=O)[C@H](CCCCN)NC(=O)[C@H](Cc1cnc[nH]1)NC(=O)[C@H](CC(C)C)NC(=O)CN)C(C)C)C(=O)N[C@@H](CCCN=C(N)N)C(=O)N[C@@H](CCC(=O)O)C(=O)N[C@H](C(=O)N[C@@H](CC(C)C)C(=O)NCC(=O)N[C@@H](Cc1ccc(O)cc1)C(=O)N[C@@H](CCC(=O)O)C(=O)N[C@@H](CCCN=C(N)N)C(=O)N[C@@H](CC(N)=O)C(=O)N[C@@H](CO)C(=O)N[C@@H](Cc1ccc(O)cc1)C(=O)N[C@@H](CCCCN)C(=O)N[C@@H](CCCCN)C(=O)N[C@@H](Cc1ccccc1)C(=O)N[C@@H](Cc1ccccc1)C(=O)N[C@@H](CC(C)C)C(=O)N[C@@H](CCCN=C(N)N)C(=O)O)C(C)C` [GLHKVMREVLGYERNSYKKFFLR]: the MIC worked out at 10.4 µM (≈ 30 µg/mL) in assay [1], 1.29 µM (≈ 3.7 µg/mL) in [2] and 2.61 µM (≈ 7.5 µg/mL) in [3].

Regarding `CC[C@H](C)[C@H](NC(=O)[C@H](CCCN=C(N)N)NC(=O)[C@H](CCCN=C(N)N)NC(=O)[C@@H]1CCCN1C(=O)[C@@H]1CCCN1C(=O)[C@H](CCCN=C(N)N)NC(=O)[C@H](CCCCN)NC(=O)[C@H](CCCN=C(N)N)NC(=O)[C@@H]1CCCN1C(=O)[C@H](CC(C)C)NC(=O)[C@H](CCCN=C(N)N)NC(=O)[C@@H]1CCCN1C(=O)[C@H](CCCCN)NC(=O)[C@H](CCCCN)NC(=O)[C@H](CC(=O)O)NC(=O)[C@@H](N)C(C)C)C(=O)N[C@@H](Cc1ccc(O)cc1)C(=O)N[C@@H](CC(N)=O)C(=O)N[C@@H](CCCN=C(N)N)C(N)=O` [VDKKPRLPRKRPPRRIYNR], the MIC against Escherichia coli JW0013 is 0.695 µM (≈ 1.7 µg/mL). This lies in the sub-micromolar range.
